The results in this text go back to patent US20170066759A1, “AROMATIC 5-MEMBERED HETEROCYCLIC DERIVATIVE HAVING TRPV4-INHIBITING ACTIVITY” (Shionogi & Co., Ltd., priority 2012, published 2017).

T1 sequence (Q9HBA0 whole entry): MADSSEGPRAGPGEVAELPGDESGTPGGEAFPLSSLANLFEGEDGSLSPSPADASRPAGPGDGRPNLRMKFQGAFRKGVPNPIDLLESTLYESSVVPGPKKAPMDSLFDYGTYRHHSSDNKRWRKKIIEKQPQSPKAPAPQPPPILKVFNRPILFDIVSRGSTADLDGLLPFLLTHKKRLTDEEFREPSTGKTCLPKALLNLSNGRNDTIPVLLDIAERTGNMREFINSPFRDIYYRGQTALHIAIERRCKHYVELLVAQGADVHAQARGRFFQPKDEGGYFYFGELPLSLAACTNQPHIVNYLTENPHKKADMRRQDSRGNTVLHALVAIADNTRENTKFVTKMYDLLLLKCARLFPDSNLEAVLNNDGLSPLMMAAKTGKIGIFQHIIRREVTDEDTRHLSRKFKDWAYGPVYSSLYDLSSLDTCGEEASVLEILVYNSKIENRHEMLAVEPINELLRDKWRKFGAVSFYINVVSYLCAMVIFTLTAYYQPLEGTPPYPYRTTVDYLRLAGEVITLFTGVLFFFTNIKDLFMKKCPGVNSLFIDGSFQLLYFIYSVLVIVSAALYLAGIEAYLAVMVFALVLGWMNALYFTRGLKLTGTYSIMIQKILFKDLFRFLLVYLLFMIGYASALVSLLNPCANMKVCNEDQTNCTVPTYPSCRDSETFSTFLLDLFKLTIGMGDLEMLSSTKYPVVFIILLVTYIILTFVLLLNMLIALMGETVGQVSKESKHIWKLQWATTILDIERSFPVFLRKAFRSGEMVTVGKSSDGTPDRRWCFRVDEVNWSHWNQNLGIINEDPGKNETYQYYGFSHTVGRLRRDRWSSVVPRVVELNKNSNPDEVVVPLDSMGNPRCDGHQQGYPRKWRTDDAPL

The first assay addresses T1, human TRPV4 (hTRPV4/CHO cells) (Homo sapiens, UniProt Q9HBA0).
T1 construct: expressed in transfected cells; host or cells: CHO-K1
As to the kind of experiment: Test Example 1: TRPV4 inhibitory activity (IC50 value), 4α-PDD stimulation, Fluo4 calcium fluorescence (FLIPR TETRA). It is filed as cell-based. To be noted: 1 μmol/L 4α-PDD, Fluo4-AM, read-out: TRPV4 inhibitory activity (IC50 value).
Turning to `Cc1nc(C)c(-c2csc(NC(=O)Cc3cc(OCC(F)(F)F)cc(C(=O)N[C@H](c4ccccc4)C(F)(F)F)c3)n2)s1` [Compound I-521], the IC50 – broadly, the concentration at which inhibition is half-maximal – was found to be 1.6 nM.

Consider `Cc1nc(C)c(-c2csc(NC(=O)Cc3ccc(S(=O)(=O)N4CCCCC4)cc3)n2)s1` [Compound I-156], for which the IC50 is 30 nM.

Staying with this assay, now noted: Test Example 1, 4α-PDD stimulation, read-out: Test 1 IC50.
For the compound `Cc1nc(CO)sc1-c1csc(NC(=O)C2CC(=O)N(c3ccccc3)C2)n1` (stereo not drawn) [Compound I-199], the IC50 was 100 to 1000 nM.

`Cc1nc(C)c(-c2csc(NC(=O)Cc3cccc(I)c3)n2)s1` [Compound I-443]: the IC50 is under 100 nM.

Regarding `CCS(=O)(=O)c1ccc(CC(=O)Nc2nc(-c3sc(C)nc3C)cs2)cc1` [Compound I-80], the IC50 lay within 100 to 1000 nM.

Take `COCC1(C(=O)Nc2nc(-c3sc(C)nc3C)cs2)CN(c2ccc(C(F)(F)F)cc2)C1` (racemic) [Compound I-531]: the IC50 was under 100 nM.

As to `Cc1nc(CO)sc1-c1csc(NC(=O)[C@@H]2C[C@@H](c3ccccc3)CN2C(=O)C(C)C)n1` [Compound I-312], the IC50 fell in the range of 100 to 1000 nM.

For the compound `Cc1nc(C)c(-c2csc(NC(=O)[C@@H]3CCN(c4ncc(C(F)(F)F)cn4)C3)n2)s1` [Compound I-394], the IC50 was under 100 nM.

With `Cc1nc(CO)sc1-c1csc(NC(=O)C2CN(c3cccnc3C(F)(F)F)C2)n1` [Compound I-310], the IC50 is under 100 nM.

On to `Cc1nc(CO)sc1-c1csc(NC(=O)C2CCN(Cc3ccccc3)C2)n1` (stereo not drawn) [Compound I-209], for which the IC50 was 1000 to 8000 nM.

As to `Cc1nc(C)c(-c2csc(NC(=O)Cc3cc(OCC(F)(F)F)cc(C(=O)N[C@H](c4ccccc4)C(F)(F)F)c3)n2)s1` [Compound I-521], the IC50 was under 100 nM.

Consider `Cc1nc(C)c(-c2csc(NC(=O)Cn3cc(COc4ccccc4)nn3)n2)s1` [Compound I-424], for which the IC50 was under 100 nM.

Turning to `Cc1nc(C)c(-c2nc(NC(=O)Cc3c(F)cccc3F)sc2C(=O)Nc2ccc(C#N)cc2)s1` [Compound I-84], the IC50 fell in the range of 1000 to 8000 nM.

As for `Cc1nc(C)c(-c2csc(NC(=O)Cc3ccc(S(C)(=O)=O)cc3F)n2)s1` [Compound I-92], the IC50 was in the range of 100 to 1000 nM.

On to `Cc1nc(CNC(N)=O)sc1-c1csc(NC(=O)Cc2ccc(S(=O)(=O)C(F)(F)F)cc2)n1` [Compound I-398], for which the IC50 lay within 1000 to 8000 nM.

Turning to `Cc1nc(CO)sc1-c1csc(NC(=O)NCc2ccc(Cl)cc2)n1` [Compound I-442], the IC50 was 100 to 1000 nM.

Turning to `Cc1nc(C)c(-c2csc(NC(=O)[C@@H]3C[C@H](c4ccccc4)CN3)n2)s1` [Compound I-179], the IC50 fell in the range of 1000 to 8000 nM.

As to `Cc1nc(C)c(-c2csc(NC(=O)[C@@H]3C[C@@H](Oc4ccccc4)CN3C(=O)C(F)(F)F)n2)s1` [Compound I-250], the IC50 was under 100 nM.

`Cc1nc(CO)sc1-c1csc(NC(=O)C2CC(N3CCC(F)(F)C3)C2)n1` (stereo not drawn) [Compound I-362]: the IC50 lay in the range of 1000 to 8000 nM.

`Cc1nc(C)c(-c2csc(NCCc3ccccc3)n2)s1` [II-35]: the IC50 was under 100 nM.

On to `CNC(=N)c1nc(C)c(-c2csc(NC(=O)Cc3ccc(S(=O)(=O)C(F)(F)F)cc3)n2)s1` [Compound I-441], for which the IC50 was in the range of 100 to 1000 nM.

Regarding `CCOC(=O)c1nc(C)c(-c2csc(NC(=O)Cc3c(F)cccc3F)n2)s1` [Compound I-94], the IC50 lay within 100 to 1000 nM.

As for `CN(C)Cc1nc(CO)sc1-c1csc(NC(=O)Cc2ccc(S(=O)(=O)C(F)(F)F)cc2)n1` [Compound I-412], the IC50 was in the range of 1000 to 8000 nM.

On to `Cc1nc(C)c(-c2csc(NC(=O)Cc3cc(OCCN(C)C)cc(C(=O)N[C@H](c4ccccc4)C(F)(F)F)c3)n2)s1` [Compound I-514], for which the IC50 is 1000 to 8000 nM.

Regarding `Cc1nc(C)c(-c2csc(NC(=O)C3(F)CN(c4ccc(C(F)(F)F)cc4)C3)n2)s1` (racemic) [Compound I-533], the IC50 was under 100 nM.

Regarding `Cc1nc(C)c(-c2csc(NC(=O)Cc3ccc(S(C)(=O)=O)cc3)n2)s1` [Compound I-119], the IC50 was 1000 to 8000 nM.

In the case of `Cc1nc(C)c(-c2csc(NC(=O)Cn3cc(-c4ccccc4S(C)(=O)=O)cn3)n2)s1` [Compound I-166], the IC50 fell in the range of 100 to 1000 nM.

Take `Cc1nc(C(=O)NS(C)(=O)=O)sc1-c1csc(NC(=O)Cc2c(F)cccc2F)n1` [Compound I-115]: the IC50 was in the range of 1000 to 8000 nM.

As for `CC(=O)NC(C)c1nc(CO)sc1-c1csc(NC(=O)Cc2ccc(S(=O)(=O)C(F)(F)F)cc2)n1` (racemic) [Compound I-472], the IC50 was in the range of 1000 to 8000 nM.

On to `CNC(=O)NCc1nc(CO)sc1-c1csc(NC(=O)Cc2ccc(S(=O)(=O)C(F)(F)F)cc2)n1` [Compound I-389], for which the IC50 was under 100 nM.

As to `O=C(Nc1nc(-c2sc(CO)nc2CO)cs1)C1CCC(C(F)(F)F)CC1` (stereo not drawn) [Compound I-254], the IC50 is under 100 nM.

For `Cc1nc(CO)sc1-c1csc(NC(=O)CC2Cc3ccccc3C2)n1` (racemic) [Compound I-239], the IC50 was 100 to 1000 nM.

Take `Cc1nc([C@H](C)O)sc1-c1csc(NC(=O)Cc2cc(Br)cc(C(=O)N[C@H](c3ccccc3)C(F)(F)F)c2)n1` [Compound I-524]: the IC50 was under 100 nM.

As for `O=C(Nc1nc(-c2sc(CO)nc2CO)cs1)C1CN(c2ccccc2Cl)C1` [Compound I-342], the IC50 was in the range of 100 to 1000 nM.

On to `Cc1nc(C#N)sc1-c1csc(NC(=O)Cc2ccc(S(=O)(=O)C(F)(F)F)cc2)n1` [Compound I-402], for which the IC50 fell in the range of 100 to 1000 nM.

On to `Cc1nc(C(C)O)sc1-c1csc(NC(=O)C2CN(c3ccc(C(F)(F)F)cn3)C2)n1` (racemic) [Compound I-473], for which the IC50 lay within 100 to 1000 nM.

Turning to `CCNCc1nc(C)sc1-c1csc(NC(=O)Cc2c(F)cccc2F)n1` [Compound I-198], the IC50 lay within 100 to 1000 nM.

Take `Cc1nc(C)c(-c2csc(NC(=O)Cc3cc(O)cc(C(=O)N[C@H](c4ccccc4)C(F)(F)F)c3)n2)s1` [Compound I-511]: the IC50 was in the range of 1000 to 8000 nM.

Turning to `Cc1nc(C)c(-c2csc(NC(=O)Cn3cc(C(F)(F)F)cn3)n2)s1` [Compound I-124], the IC50 was under 100 nM.

Turning to `Cc1nc(C(F)F)sc1-c1csc(NC(=O)Cc2ccc(N(C)C)cc2)n1` [Compound I-542], the IC50 fell in the range of 100 to 1000 nM.

For `Cc1nc(C)c(-c2csc(NC(=O)Cc3ccc(S(=O)(=O)N4CCCCC4)cc3)n2)s1` [Compound I-156], the IC50 was under 100 nM.

For the compound `Cc1nc(C)c(-c2csc(NC(=O)Cc3ccc(F)c(C#N)c3)n2)s1` [Compound I-78], the IC50 was under 100 nM.

Regarding `Cc1nc(CO)sc1-c1csc(NC(=O)C2C[C@H](C(F)(F)F)CN2C(=O)OC(C)(C)C)n1` (stereo partly drawn) [Compound I-448], the IC50 was under 100 nM.

In the case of `Cc1nc(C)c(-c2csc(NC(=O)Cn3cc(-c4cccc(S(C)(=O)=O)c4)cn3)n2)s1` [Compound I-150], the IC50 was under 100 nM.

In the case of `Cc1nc(C)c(-c2csc(NC(=O)C3CN(S(=O)(=O)c4ccc(C(F)(F)F)cc4)C3)n2)s1` [Compound I-264], the IC50 is under 100 nM.

`Cc1nc(CO)sc1-c1csc(NC(=O)[C@H]2C[C@@H](N(C)CC(F)(F)F)C2)n1` [Compound I-304]: the IC50 lay within 100 to 1000 nM.

For the compound `Cc1nc(C(C)O)sc1-c1csc(NC(=O)C2CN(c3ccc(C(F)(F)F)cc3)C2)n1` (racemic) [Compound I-467], the concentration for half-maximal inhibition (IC50) was under 100 nM.

As for `Cc1nc([C@@H](C)O)sc1-c1csc(NC(=O)Cc2ccc(S(=O)(=O)C(F)(F)F)cc2)n1` [Compound I-455], the IC50 was under 100 nM.

With `Cc1nc(C)c(-c2csc(NC(=O)C3CC(c4ccccc4)=NO3)n2)s1` (stereo not drawn) [Compound I-206], the IC50 lay in the range of 100 to 1000 nM.

With `Cc1nc(C)c(-c2csc(NC(=O)Cc3ccc(S(=O)(=O)Nc4ccccc4)cc3)n2)s1` [Compound I-164], the IC50 lay in the range of 100 to 1000 nM.

`O=C(Cc1ccc(S(=O)(=O)C(F)(F)F)cc1)Nc1nc(-c2sc(CO)nc2/C=C/CO)cs1` [Compound I-320]: the IC50 was under 100 nM.

For `Cc1nc(CO)sc1-c1csc(NC(=O)[C@H]2C[C@@H](N(C)Cc3ccc(C(F)(F)F)cc3)C2)n1` [Compound I-318], the IC50 is under 100 nM.

In the case of `Cc1nc(C)c(-c2csc(NC(Cc3ccc(Cl)cc3)C(=O)NC3CCOCC3)n2)s1` (racemic) [II-46], the IC50 lay in the range of 1000 to 8000 nM.

Regarding `Cc1nc(C)c(-c2csc(NC(=O)[C@H]3CC[C@@H](c4ccccc4)N3C(=O)OC(C)(C)C)n2)s1` [Compound I-211], the IC50 lay in the range of 100 to 1000 nM.

On to `COc1cc(CC(=O)Nc2nc(-c3sc(C)nc3C)cs2)cc(C(=O)NC(c2ccccc2)C(F)(F)F)c1` (stereo not drawn) [Compound I-504], for which the IC50 is under 100 nM.

For the compound `Cc1nc(C)c(-c2csc(NC(=O)Cc3cccc(N)c3)n2)s1` [Compound I-409], the IC50 was in the range of 100 to 1000 nM.

Turning to `Cc1nc(C)c(-c2csc(NC(=O)CC3CN(c4ccc(C(F)(F)F)cn4)C3)n2)s1` [Compound I-493], the IC50 was 100 to 1000 nM.

For the compound `Cc1nc(CN2NCCC2=O)c(-c2csc(NC(=O)Cc3ccc(S(=O)(=O)C(F)(F)F)cc3)n2)s1` [Compound I-487], the IC50 was in the range of 100 to 1000 nM.

With `Cc1nc(C)c(-c2csc(N(CCCN3CCOCC3)C(=O)Cc3ccc(S(=O)(=O)C(F)(F)F)cc3)n2)s1` [Compound I-364], the IC50 is 1000 to 8000 nM.

With `Cc1nc(C)c(-c2csc(NC(=O)[C@@H]3C[C@@H](N4CCC(c5ccccc5)CC4)CN3C(=O)C(F)(F)F)n2)s1` [Compound I-276], the IC50 is under 100 nM.

For `Cc1nc(C)c(-c2csc(NC(=O)Cc3ccccc3C#N)n2)s1` [Compound I-121], the IC50 lay in the range of 100 to 1000 nM.

Regarding `CCNCc1nc(CO)sc1-c1csc(NC(=O)Cc2ccc(S(=O)(=O)C(F)(F)F)cc2)n1` [Compound I-237], the IC50 was in the range of 100 to 1000 nM.

Turning to `Cc1nc(C)c(-c2csc(NC(=O)N3CCC(C(F)(F)F)CC3)n2)s1` [Compound I-89], the IC50 was 1000 to 8000 nM.

For `C=C(C)c1nc(C)sc1-c1csc(NC(=O)Cc2c(F)cccc2F)n1` [Compound I-545], the IC50 lay within 100 to 1000 nM.

`CC(=O)NCc1nc(C)sc1-c1csc(NC(=O)Cc2ccc(S(=O)(=O)C(F)(F)F)cc2)n1` [Compound I-471]: the IC50 is under 100 nM.

For the compound `Cc1nc(CO)sc1-c1csc(NC(=O)C2CC(OCC3CC3)C2)n1` (stereo not drawn) [Compound I-333], the IC50 lay within 1000 to 8000 nM.

As for `O=C(Cc1ccc(S(=O)(=O)C(F)(F)F)cc1)Nc1nc(-c2sc(CO)nc2CCCN2CCOCC2)cs1` [Compound I-377], the IC50 is under 100 nM.

As to `Cc1nc(C)c(-c2csc(NC(=O)Cc3cccc(S(=O)(=O)Nc4ccccc4F)c3)n2)s1` [Compound I-501], the IC50 is under 100 nM.

For the compound `Cc1nc(CO)sc1-c1csc(NC(=O)[C@H]2C[C@@H](C(F)F)C2)n1` [Compound I-355], the IC50 is 100 to 1000 nM.
